The values that follow are results of earlier work, collected in patent US20240050452A1, “USE OF C[…] THE TREATMENT OF SEIZURES ASSOCIATED WITH EPILEPSY SYNDROMES IN PATIENTS TAKING BRIVARACETAM” (GW Research Limited, priority 2020, published 2024).

For this series, the system named is seizure frequencies. The settings on record: increasing CBD dose combined with a constant BRV dose; seizure types not disclosed.

As for `C=C(C)[C@@H]1CCC(C)=C[C@H]1c1c(O)cc(CCCCC)cc1O` [CBD, cannabidiol], the “effect on seizure frequencies” value was “reductions in seizure frequencies”.
